Reference: US11045473B2, “Compositions and methods for therapy of prostate cancer using drug combinations to target polyamine biosynthesis and related pathways” (Health Research, Inc., priority 2015, dated 2021)
“Also recorded” adds a separate entry of the source.

Tests used:
Format in all cases: cell-based, human
SAT1 [1] = test: SAT1 mRNA and protein expression in LNCaP cells treated with BENSpm; conditions: BENSpm 0.1 to 10 μM
Experimental: (§1) FIG. 11 depicts a Western blot showing AMD1, ODC1, SAT1 and B-actin protein expression in wild type LNCaP cells pretreated with +/−DHT for 24 hours followed by BENSpm for 96 hours.
(§2) We next analyzed whether the metabolic stress in CaP cells caused by high biosynthetic flux to maintain polyamine pools can be enhanced by increasing the activity of SAT1. We tested whether this could cause increased secretion of acetylated polyamines, putting intracellular pools in deficit, which should necessitate more biosynthesis, and should therefore potentiate any benefit of inhibiting the MSP. To conduct this analysis we used LNCaP cells that stably overexpress SAT1 in a Tet-off system (LNG53 cells, described in Kee, K., et al. J Biol Chem 279, 27050-27058 (2004)).

SAT1 [2] = test: SAT1 activity in response to BENSpm treatment
Source text: as §2

ODC1 = test: Western blot of ODC1 in LNCaP cells treated with BENSpm; conditions: BENSpm for 96 hours
Experimental: as §1, §2

AMD1 = test: Western blot of AMD1 in LNCaP cells treated with BENSpm; conditions: BENSpm for 96 hours
Experimental: as §1, §2

LNCaP = test: Proliferation of wild type LNCaP, BENSpm 24 h pre-treatment then 96 hr MTDIA
Experimental: (§3) Tet was removed 24 hours prior to 96 hr treatment with MTDIA. […] Cells were pre-treated with BENSpm for 24 hours followed by 96 hr treatment with MTDIA.
as §2

DU145 = test: Proliferation of DU145, BENSpm 24 h pre-treatment then 96 hr MTDIA; conditions: AR negative DU145, 2.5 μM BENSpm
Experimental: as §3, §2

MTAP [3] = test: Western blot of MTAP protein expression in FaDu; conditions: 10 and 20 uM MTA for 4 days
Experimental: (§4) FIG. 9. (A) Proliferation curves for LNCaP, DU145 and PC3 treated with MTDIA in the absence or presence of 10 or 20 uM MTA, for 4 and (B) 8 days. […] (C) Western blot analysis of FaDu, LNCaP, and DU145 cells after indicated treatments of MTA (0, 10, or 20 uM) or the respective 4 day IC25 and IC50 dose of MTDIA for each cell line plus or minus MTA immunoblotted with antibodies against MTAP, SMS, and SRM, with B-actin as a loading control. Western blot images are representative of biological triplicates.
(§5) Western Blotting—Whole cell extracts were prepared in RIPA buffer (150 mM NaCl, 1.0% NP-40, 0.5% deoxycholate, 0.1% SDS, 50 mM Tris-HCl pH 8.0, 5 mM EDTA and 0.5 mM PMSF) supplemented with 1× proteinase inhibitor. Protein concentrations were determined by Bradford Assay (Thermo Scientific, Cat #1856209). […] MTAP for Westerns was purchased from Proteintech™ (Cat #11475-1-AP. SRM and SMS were purchased from Abcam® (Cat #ab111884 and ab156879). B-actin antibody for Westerns was purchased from Sigma-Aldrich (Cat #A5441) and GAPDH was from Santa Cruz Biotecnology Inc. (Cat #sc-25778). Films were scanned using the Biorad ChemiDoc XRS, and band intensities were calculated using Image Lab™. Intensity values were normalized to B-actin loading control band intensities and made relative to control treatment conditions.

MTAP [4] = test: Western blot of MTAP protein expression in LNCaP; conditions: MTA treatment
Experimental: as §4, §5

MTAP [5] = test: Western blot of MTAP protein expression in DU145; conditions: DU145, 10 and 20 uM MTA for 4 days
Experimental: as §4, §5

Structure (SMILES) | SAT1 mRNA (SAT1 [1]) | SAT1 protein (SAT1 [1]) | SAT1 activity, dose dependent increase (SAT1 [2]; (+) dihydrotestosterone (DHT) conditions) | SAT1 activity, dose dependent increase (SAT1 [2]; (−) DHT conditions) | effect on ODC1 (ODC1) | effect on AMD1 (AMD1) | sensitivity to MTDIA (LNCaP; 2.5 μM BENSpm) | effect on proliferation (LNCaP; 2.5 μM BENSpm alone) | sensitivity to MTDIA (DU145) | MTAP protein expression (MTAP [3]) | MTAP levels (MTAP [4]) | MTAP protein expression (MTAP [5])
CCNCCCNCCCNCCCNCC [BENSpm, N(1),N(11)-bisethylnorspermine] | increased | increased | 17-40 fold | 6-20 fold | minimal effects | minimal effects | more sensitive to MTDIA; also recorded: greatly increased sensitivity to MTDIA | no effect on proliferation | more sensitive to MTDIA; also recorded: strongly increased sensitivity to MTDIA |  |  | 
CSC[C@H]1O[C@@H](n2cnc3c(N)ncnc32)[C@H](O)[C@@H]1O [MTA] |  |  |  |  |  |  |  |  |  | slightly decreased | unchanged | slightly increased
